Test results as given in patent US20230086833A1, “DEFIBROTIDE TREATMENT FOR THE PREVENTION OF ORGAN REJECTION AND INJURY” (Jazz Pharmaceuticals Ireland Limited, priority 2020, published 2023).

Test system: autologous dog kidney transplant model for IRI
Test: Autologous dog kidney transplant model for ischaemia reperfusion injury (IRI)
Type: in vivo
Description: An autologous dog kidney transplant model for IRI was developed (FIG. 1). The right kidney was removed from a dog at day 0 of the study and was exposed to cold ischemia for 32 hours. After exposure to cold ischemia, the right kidney developed IRI. Subsequently, in an autotransplant, the right kidney was implanted, and the left kidney was removed. Defibrotide was administered to the dog prior to transplant and after transplant four times per day for 7 days at doses of 3 mg/kg, 10 mg/kg, or 25 mg/kg. Clinical endpoints were evaluated, including bleeding at the anastomosis site, coagulation, renal function labs, serum creatinine, blood urea nitrogen (BUN), histopathology at sacrifice, and the measurement of biomarkers, including endothelin-1, Kim-1, ICAM-1, E-selectin, t-PA, PAI-1, Thrombomodulin, IL-6, TNF-α, MCP-1, and A2M.
The gross dog kidney morphology was evaluated at the termination of the study.
The creatinine level, a marker of renal function, was measured pre-transplant and post-transplant after treatment with saline control, 3 mg/kg, 10 mg/kg, or 25 mg/kg of defibrotide. […] Each curve represents a different dog.

For defibrotide, the “severity of hemorrhage after IRI (FIG. 2, dose response)” value (after higher doses of defibrotide, saline control) was “the severity of hemorrhage lessened”, the “creatinine levels (marker of renal function, FIG. 3)” value (after six days of defibrotide, 3, 10 or 25 mg/kg, post-transplant) was “decreased to levels just above normal” and the “hemorrhage, gross dog kidney morphology at the termination of the study” value (higher doses of defibrotide (3, 10 or 25 mg/kg, four times per day for 7 days), kidney exposed to cold ischemia for 32 hours) was “Minimal hemorrhage”. The “renal function post IRI” value (higher doses of defibrotide, after transplant) was “improved renal function”.
